# Source: PubChem BioAssay (NCI)
#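 Compound exposure: 48 hours, 5 concentrations, 96-well plates. TGI denotes the concentration required for complete inhibition of growth.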 Where a SMILES comes first, the peptide text is derived from it. The star is where a group is joined. Boc = CC(C)(C)OC(=O)*
# Assays:
# Test in all cases: growth of human tumour cells (NCI), 48 h
# SK-MEL-28 melanoma = system: SK-MEL-28 melanoma
# CCRF-CEM leukemia = system: CCRF-CEM leukemia
# SNB-19 CNS = system: SNB-19 CNS
# LOX IMVI melanoma = system: LOX IMVI melanoma
# EKVX NSCLC = system: EKVX NSCLC
# HOP-92 NSCLC = system: HOP-92 NSCLC
# NCI-H522 lung = system: NCI-H522 lung
# SF-295 CNS = system: SF-295 CNS
# SK-OV-3 ovarian = system: SK-OV-3 ovarian
# SK-MEL-5 melanoma = system: SK-MEL-5 melanoma
# SN12C renal = system: SN12C renal
# UACC-257 melanoma = system: UACC-257 melanoma
# U251 CNS = system: U251 CNS
# HL-60(TB) leukemia = system: HL-60(TB) leukemia
# NCI-H23 lung = system: NCI-H23 lung
# NCI-H226 lung = system: NCI-H226 lung
# MDA-N = system: MDA-N
# IGROV1 ovarian = system: IGROV1 ovarian
# KM12 colon = system: KM12 colon
# SR leukemia = system: SR leukemia
Structure (SMILES),TGI (SK-MEL-28 melanoma),TGI (CCRF-CEM leukemia),TGI (SNB-19 CNS),TGI (LOX IMVI melanoma),TGI (EKVX NSCLC),TGI (HOP-92 NSCLC),TGI (NCI-H522 lung),TGI (SF-295 CNS),TGI (SK-OV-3 ovarian),TGI (SK-MEL-5 melanoma),TGI (SN12C renal),TGI (UACC-257 melanoma),TGI (U251 CNS),TGI (HL-60(TB) leukemia),TGI (NCI-H23 lung),TGI (NCI-H226 lung),TGI (MDA-N),TGI (IGROV1 ovarian),TGI (KM12 colon),TGI (SR leukemia)
CC(O)CCNC(=O)Nc1c(C(F)(F)F)cc(-c2ccccc2)[nH]c1=O (stereo not drawn),> 100 µM,> 100 µM,> 100 µM,> 100 µM,> 100 µM,> 100 µM,> 100 µM,> 100 µM,> 100 µM,> 100 µM,> 100 µM,> 100 µM,> 100 µM,> 100 µM,> 100 µM,> 100 µM,> 100 µM,> 100 µM,> 100 µM,–
CC(C)(C)OC(=O)NNC(=O)C1Cc2ccccc2OC1=O (stereo not drawn),> 100 µM,–,> 100 µM,–,> 100 µM,–,> 100 µM,> 100 µM,> 100 µM,> 100 µM,> 100 µM,> 100 µM,> 100 µM,–,> 100 µM,> 100 µM,> 100 µM,> 100 µM,> 100 µM,> 100 µM
Cc1cc(Cl)ccc1NC(=O)C(=O)Cc1ccc([N+](=O)[O-])c([N+](=O)[O-])c1CC(=O)C(=O)Nc1ccc(Cl)cc1C,> 100 µM,> 100 µM,> 100 µM,> 100 µM,> 100 µM,> 100 µM,> 100 µM,> 100 µM,> 100 µM,> 100 µM,> 100 µM,> 100 µM,> 100 µM,> 100 µM,> 100 µM,> 100 µM,–,> 100 µM,> 100 µM,> 100 µM
CS(=O)(=O)N1CC(CCl)c2ccc(NCCN)cc21 (stereo not drawn),> 100 µM,> 100 µM,> 100 µM,> 100 µM,> 100 µM,74.6 µM,> 100 µM,–,87.9 µM,> 100 µM,> 100 µM,> 100 µM,> 100 µM,> 100 µM,> 100 µM,> 100 µM,> 100 µM,49.8 µM,> 100 µM,–
CC(C)[C@H]1CO[C@@H]2O[C@H](C)CC(=O)N21,> 100 µM,> 100 µM,> 100 µM,–,> 100 µM,> 100 µM,> 100 µM,> 100 µM,> 100 µM,> 100 µM,> 100 µM,> 100 µM,> 100 µM,> 100 µM,> 100 µM,> 100 µM,–,> 100 µM,> 100 µM,> 100 µM
CC(NC1=NCCO1)c1cccs1 (stereo not drawn),53.9 µM,78.5 µM,55.9 µM,–,> 100 µM,47 µM,–,31 µM,> 100 µM,75.1 µM,> 100 µM,37.9 µM,39.6 µM,45.4 µM,> 100 µM,> 100 µM,–,61.6 µM,31.7 µM,> 100 µM
O=C1CCc2nc3ncccc3cc2C1,> 100 µM,72.8 µM,> 100 µM,–,> 100 µM,> 100 µM,55.4 µM,> 100 µM,> 100 µM,> 100 µM,> 100 µM,> 100 µM,–,–,> 100 µM,> 100 µM,> 100 µM,> 100 µM,–,–
CCCC(=O)OCC1(CO)C/C(=C/CC(C(C)C)C(C)C)C(=O)O1 (stereo not drawn),> 100 µM,> 100 µM,> 100 µM,35.8 µM,> 100 µM,> 100 µM,> 100 µM,> 100 µM,> 100 µM,> 100 µM,> 100 µM,> 100 µM,> 100 µM,–,> 100 µM,> 100 µM,> 100 µM,> 100 µM,> 100 µM,–
Cc1cc(C)c(S(=O)(=O)N(CCCCCCN)OCCCN)c(C)c1,36.1 µM,36.9 µM,38.2 µM,31.3 µM,29.9 µM,29.9 µM,27.3 µM,34.8 µM,34 µM,37.6 µM,37.2 µM,29.7 µM,32.6 µM,33.3 µM,32 µM,86.5 µM,32.2 µM,29.6 µM,32.1 µM,–
COC(=O)/C(=N\N)C(C(=O)C(=O)Nc1cccc([N+](=O)[O-])c1)c1nc2ccc(C(=O)c3ccccc3)cc2[nH]c1=O (stereo not drawn),> 100 µM,79.4 µM,> 100 µM,> 100 µM,> 100 µM,> 100 µM,> 100 µM,> 100 µM,> 100 µM,> 100 µM,> 100 µM,> 100 µM,> 100 µM,> 100 µM,> 100 µM,> 100 µM,> 100 µM,> 100 µM,> 100 µM,–
CCN(CC)CCSc1n[nH]c(-c2c[nH]c3nc(C)ccc3c2=O)n1,> 100 µM,> 100 µM,> 100 µM,> 100 µM,> 100 µM,–,> 100 µM,> 100 µM,–,> 100 µM,> 100 µM,> 100 µM,> 100 µM,> 100 µM,> 100 µM,> 100 µM,> 100 µM,> 100 µM,> 100 µM,–
Nc1ccc(C(=O)NN2C(=O)C(Cl)C2c2cc(Br)cc(Br)c2O)cc1 (stereo not drawn),> 100 µM,> 100 µM,> 100 µM,33.8 µM,59.5 µM,> 100 µM,> 100 µM,> 100 µM,> 100 µM,65.5 µM,–,85.9 µM,> 100 µM,> 100 µM,58 µM,45.8 µM,–,> 100 µM,> 100 µM,> 100 µM
CC(OC1CC(=O)CC2C(=O)C=CC(=O)C12)c1ccccc1 (stereo not drawn),36.4 µM,9.54 µM,> 55.9 µM,33.3 µM,30.6 µM,2.97 µM,2.98 µM,33 µM,> 56.2 µM,33.6 µM,33.2 µM,35.4 µM,27.9 µM,20 µM,33.6 µM,36.5 µM,–,31.4 µM,32.4 µM,42.8 µM
Brc1cccc(Nc2ncnc3sc4c(c23)CCC(Nc2cccc(Br)c2)C4)c1 (stereo not drawn),> 100 µM,> 100 µM,> 100 µM,> 100 µM,> 100 µM,> 100 µM,> 100 µM,> 100 µM,> 100 µM,> 100 µM,> 100 µM,> 100 µM,> 100 µM,–,> 100 µM,–,> 100 µM,> 100 µM,> 100 µM,–
COC(=O)C(Cc1c[nH]c2ccccc12)NC(=O)C(Cc1c[nH]c2ccccc12)NC(=O)C(Cc1c[nH]c2ccccc12)NC(=O)OC(C)(C)C (stereo not drawn) (Boc-Trp-Trp-Trp-OMe; configuration not given here),33.8 µM,–,47 µM,–,> 100 µM,33 µM,–,–,–,> 100 µM,39.4 µM,> 100 µM,32.4 µM,47.4 µM,31.8 µM,37.1 µM,40.3 µM,40.5 µM,38.2 µM,–
CCNc1nc(N)c(C(=O)c2cccs2)s1,> 100 µM,–,> 100 µM,> 100 µM,62.8 µM,> 100 µM,> 100 µM,> 100 µM,> 100 µM,44.8 µM,> 100 µM,> 100 µM,> 100 µM,21.9 µM,63.9 µM,76 µM,> 100 µM,50.3 µM,46.7 µM,–
CC(C)Oc1c(C2(c3ccccc3O)SCCCS2)c(=O)c1=O,> 100 µM,61.6 µM,> 100 µM,> 100 µM,> 100 µM,> 100 µM,58.9 µM,> 100 µM,> 100 µM,> 100 µM,> 100 µM,> 100 µM,> 100 µM,> 100 µM,> 100 µM,> 100 µM,> 100 µM,> 100 µM,> 100 µM,–
CC(=O)/C=C(/C=N/O)c1ccccc1,> 100 µM,> 100 µM,> 100 µM,> 100 µM,> 100 µM,–,> 100 µM,> 100 µM,> 100 µM,> 100 µM,> 100 µM,> 100 µM,> 100 µM,–,> 100 µM,> 100 µM,> 100 µM,> 100 µM,> 100 µM,> 100 µM
OC1CSCCCSCCSCCCSC1,> 100 µM,–,> 100 µM,> 100 µM,> 100 µM,> 100 µM,> 100 µM,> 100 µM,> 100 µM,> 100 µM,> 100 µM,> 100 µM,> 100 µM,–,> 100 µM,> 100 µM,> 100 µM,> 100 µM,–,–
CN/C=C(/c1ccc(OC)cc1)C(O)c1ccc(OC)c(OC)c1 (stereo not drawn),> 100 µM,> 100 µM,> 100 µM,> 100 µM,> 100 µM,> 100 µM,> 100 µM,> 100 µM,> 100 µM,> 100 µM,> 100 µM,> 100 µM,> 100 µM,> 100 µM,> 100 µM,> 100 µM,–,> 100 µM,> 100 µM,> 100 µM
